Values quoted from earlier work as cited in article PMC10646941 (Chemical Science, 2023).

Target: SARS-CoV-2 3C-Like Protease

For `CC(C)(C)[C@H](NC(=O)C(F)(F)F)C(=O)N1C[C@H]2[C@@H]([C@H]1C(=O)N[C@H](C#N)C[C@@H]1CCNC1=O)C2(C)C` [nirmatrelvir], the kinact/Ki is listed as 55000 M⁻¹ s⁻¹.
